Structures are written as SMILES.

The test system of one experiment is hMSC secretome. Briefly: LC-MS/MS analysis of secreted proteins in the secretome. Format: cell-based, human. The note with it: n=4; for number of down-regulated proteins (Fold ≤ 1.5) vs control / number of up-regulated proteins (Fold ≥ 1.5) vs control: vs DMSO under normoxia. How it is done: (§1) Human mesenchymal stem cells (hMSC) were obtained from American Type Culture Collection (ATCC, Manassas, VA). Cells were stored in liquid nitrogen until use. MSCs were maintained in minimum essential medium, alpha (aMEM, Corning®, Corning, NY) supplemented with 16% Fetal Bovine Serum (FBS, VWR, Radnor, PA) and 4 mM L-glutamine (Sigma-Aldrich, St. Louis, MO). Medium was changed every other day, and once the cells reached 70-80% confluence, the cells were detached by trypsin-EDTA solution (VWR, Radnor, PA). hMSC were seeded (density 5,000 cells/cm^2) on 25 cm^2. When cells reached 80% confluency (4-5 days), they were washed two times with 5 ml of PBS. The growth media was then changed to serum-free media with or without a product treatment (5 ml), and the cells were cultured for 48 hours. Experiments were performed in two different environments, normoxia (about 18.6% oxygen) and hypoxia (5% oxygen). Cells were incubated at 37° C. and 5% CO2 throughout the experiment.
To characterize the hMSC secretome, condition media (CM or secretome) was collected from cells cultured under FBS-free for 48 hours. CM was filtered through a 0.45 μm syringe filter to remove residual cells and cell debris. The resulting condition media was concentrated and washed 3 times with 50 mM ammonium bicarbonate using Corning® Spin-X® UF Concentrators (10K Dalton, Corning®, Corning, NY) at 3,000 g for 25 minutes each cycle. Following, the secretome was collected from the concentrator, frozen at −80° C., and lyophilized 24 hours. Lyophilized secretome was stored at −80° C. For functional experiments with CM, normal hMSCs (passages 6-8) were used.
The amount of secretome was normalized in all samples, and 50 μl of the sample were pipetted in microcentrifuge units (Millipore, Burlington, MA) and digested following the filter aided sample preparation (FASP) protein digestion kit from Expedeon (San Diego, CA). Samples were reduced using 0.1 M dithiothreitol for 15 minutes at 50° C. […] was achieved using iodoacetamide for 20 minutes at room temperature following by 2× washing steps with 8 M urea and 50 mM ammonium bicarbonate. The samples were then enzymatically digested with trypsin at 37° C. overnight. Finally, samples were collected by spinning the microcentrifuge units at 14000 rcf for 20 minutes with a final wash with distilled water and freeze-dried. Prior to LC-MS/MS analysis, samples were resuspended in 0.1% formic acid.
Mass spectrometry analysis was executed in the orbitrap Thermo Velos Pro system (Thermo Fisher Scientific, Waltman, MA) using Thermo Xcalibur™ Roadmap software (Thermo Fisher Scientific, Waltman, MA). For this study, secretome from 4 independent experiments were processed and analyzed independently.
Mass spectra were analyzed using Proteome Discoverer™ 2.1 (Thermo Fisher Scientific, Waltman, MA) label-free differential protein expression analysis and the Sequest™ HT. Xcalibur™ raw data collected from the mass spectrometer was imported from the MS spectra and processed as followed. Only features compromising charges of 2+ and 3+ were selected. The mass precision was 2 ppm and mass tolerance 0.02 Da for fragment mass tolerance. Trypsin was set as the digestion enzyme with a maximum of two allowed missed cleavages with six as the minimum peptide length. Cysteine carbamidomethylation (C) was set as a fixed modification, and N-terminal acetylation and methionine oxidation were allowed as variable modifications. The spectra were searched using the Sequest™ HT search engine against the human Uniprot sequence database. Percolator node was used to filter data using 0.1 for FDR at the peptide and protein level. For relative quantification in a label-free analysis, the precursor ion area detector node was used, and ratios were calculated by dividing the treated samples vs. the control group (DMSO under normoxia). […]

Experiment [1] deals with Human mesenchymal stem cells (hMSC). Nature of the experiment: Cell proliferation (MTS) of hMSC treated with RSV, NAM or RSV+NAM. The note with it: 48 hours, serum-free media, normoxia, increasing dose, vs DMSO control. Format: cell-based. How it is done: as §1, with “[…] Cell proliferation was assessed using CellTiter 96® AQueous Non-Radioactive Cell Proliferation Assay (MTS, Promega, Madison WI) based on the redox conversion of a tetrazolium salt into formazan product. […] The cells” for “Experiments were performed in two different environments, normoxia (about 18.6% oxygen) and hypoxia (5% oxygen). Cells”, “incubated for 2 hours, and the absorbance of each well” for “incubated”, “490 nm was measured using a SpectraMax® 190 Microplate Reader. Cell proliferation was determined using MTS, colorimetric assay after” for “37° C. and 5% CO2 throughout”, “cells were treated for 48 hours in serum free media with the vehicle (DMSO) as control, resveratrol (RSV), nicotinamide (NAM), or a combination (RSV+NAM) in serum-free media under normoxia. […]” for “experiment.”

In the case of `Oc1ccc(/C=C/c2cc(O)cc(O)c2)cc1` [RSV, 3,5,4′-trihydroxy-trans-stilbene], in the experiment on hMSC secretome (Hypoxia (5% O2)), the “Total proteins (number of proteins secreted)” value was determined as 55, the “Unique vs control (number of unique proteins)” value was 2, the “number of down-regulated proteins (Fold ≤ 1.5) vs control” value stood at 0 and the “number of up-regulated proteins (Fold ≥ 1.5) vs control” value is recorded as 30. In the experiment with hMSC secretome (Normoxia), the “Total proteins (number of proteins secreted)” value was 51, the “Unique vs control (number of unique proteins)” value is on record as 2, the “number of down-regulated proteins (Fold ≤ 1.5) vs control” value is listed as 3 and the “number of up-regulated proteins (Fold ≥ 1.5) vs control” value is given as 7. In addition, the “cell proliferation (MTS) versus control” value in experiment [1] is “not a significant difference”.

In the case of `NC(=O)c1cccnc1` [nicotinamide], the “cell proliferation (MTS) versus control” value in experiment [1] is “not a significant difference”.

These data come from patent publication US20230365938A1, “METHODS OF FORMING COMPOSITIONS CONTAINING COLLAGEN” (priority 2019, published 2023).
